{"source": "paper PMC10331583", "about": "“Control of fibrosis with enhanced safety via asymmetric inhibition of prolyl‐tRNA synthetase 1” (EMBO Molecular Medicine, 2023)", "key": {"[1]": {"test_system": "TNT Quick Coupled Transcription/Translation System (luciferase synthesis)", "format": "biochemical"}, "WI‐26 VA4 cells": {"test_system": "WI‐26 VA4 cells", "assay": "Puromycin incorporation assay", "format": "cell-based, human", "conditions": "for activity at 0.1 µM: WI26VA4, 100 nM; for activity at 0.3 µM: WI26VA4, 300 nM; for activity at 1 µM: WI26VA4, 1000 nM; for activity at 3 µM: WI26VA4, 3000 nM; for activity at 5 µM: WI26VA4, 5000 nM; for activity at 10 µM: WI26VA4, 10000 nM", "method": "After being rinsed with cold PBS twice, the cells were collected and resuspended in 200 μl of the carbonate bicarbonate buffer (Sigma Aldrich, C3041‐50CAP) with protease inhibitor. The cell lysates were obtained by sonication and centrifugation at 20,000 g for 15 min at 4°C. After protein quantification using a Pierce™ BCA Protein Assay Kit (Thermo Fisher Scientific, 23225), 400 ng of the proteins was coated to ELISA plates for 18 h at 4°C. […] The plates were rinsed with the washing buffer for three times after each antibody incubation step. […] The amount of puromycin incorporated in proteins was determined by measuring the absorbance at 450 nm (reference wavelength at 620 nm). Experimental values marked in red with strikethrough text in the Figure Source Data file were excluded from the analysis. These values were determined by considering the values of biological and technical replicates under the same condition, as well as the values at the former and later chemical concentrations."}, "[2]": {"conditions": "Homo sapiens, read-out: Puromycin, % of control, average"}, "[3]": {"conditions": "Homo sapiens, read-out: Puromycin, % of control, single replicate"}}, "note": "Values joined by “and” are separate entries in the source; they are usually repeats but may differ in a detail not shown here. Equal values may be shown once. Read-outs that look alike come from different tables or passages of the source."}
{"smiles": "Cc1c(Cl)ccc2c1ncn2CC(=O)C[C@H]1NCCC[C@@H]1O", "note": "[DWN11748]", "values": [{"measurement": "TNT-luciferase % of control", "setting": "[1]; 20 nM, Experiment #1, replicates, 0.02 µM", "value": "124.31 % of control and 118.51 % of control and 107.73 % of control"}, {"measurement": "TNT-luciferase % of control", "setting": "[1]; 20 nM, Experiment #2, replicates, 0.02 µM", "value": "122.22 % of control and 112.59 % of control and 102.96 % of control"}, {"measurement": "TNT-luciferase % of control, average", "setting": "[1]; 20 nM", "value": "114.72 % of control"}, {"measurement": "TNT-luciferase % of control", "setting": "[1]; 60 nM, Experiment #1, replicates, 0.06 µM", "value": "118.51 % of control and 116.02 % of control and 106.08 % of control"}, {"measurement": "TNT-luciferase % of control", "setting": "[1]; 60 nM, Experiment #2, replicates, 0.06 µM", "value": "117.78 % of control and 113.33 % of control and 103.70 % of control"}, {"measurement": "TNT-luciferase % of control, average", "setting": "[1]; 60 nM", "value": "112.57 % of control"}, {"measurement": "TNT-luciferase % of control", "setting": "[1]; 200 nM, Experiment #1, replicates, 0.2 µM", "value": "119.34 % of control and 112.71 % of control and 116.02 % of control"}, {"measurement": "TNT-luciferase % of control", "setting": "[1]; 200 nM, Experiment #2, replicates, 0.2 µM", "value": "136.30 % of control and 122.22 % of control and 131.11 % of control"}, {"measurement": "TNT-luciferase % of control, average", "setting": "[1]; 200 nM", "value": "122.95 % of control"}, {"measurement": "TNT-luciferase % of control", "setting": "[1]; 600 nM, Experiment #1, replicates, 0.6 µM", "value": "122.65 % of control and 113.54 % of control and 107.73 % of control"}, {"measurement": "TNT-luciferase % of control", "setting": "[1]; 600 nM, Experiment #2, replicates, 0.6 µM", "value": "109.63 % of control and 101.48 % of control and 108.89 % of control"}, {"measurement": "TNT-luciferase % of control, average", "setting": "[1]; 600 nM", "value": "110.65 % of control"}, {"measurement": "TNT-luciferase % of control", "setting": "[1]; 2000 nM, Experiment #1, replicates, 2 µM", "value": "77.24 % of control and 79.06 % of control and 67.79 % of control"}, {"measurement": "TNT-luciferase % of control", "setting": "[1]; 2000 nM, Experiment #2, replicates, 2 µM", "value": "73.56 % of control and 76.30 % of control and 68.37 % of control"}, {"measurement": "TNT-luciferase % of control, average", "setting": "[1]; 2000 nM", "value": "73.72 % of control"}, {"measurement": "TNT-luciferase % of control", "setting": "[1]; 6000 nM, Experiment #1, replicates, 6 µM", "value": "17.73 % of control and 16.82 % of control and 16.99 % of control"}, {"measurement": "TNT-luciferase % of control", "setting": "[1]; 6000 nM, Experiment #2, replicates, 6 µM", "value": "12.15 % of control and 12.07 % of control and 13.19 % of control"}, {"measurement": "TNT-luciferase % of control, average", "setting": "[1]; 6000 nM", "value": "14.83 % of control"}, {"measurement": "TNT-luciferase % of control", "setting": "[1]; 20000 nM, Experiment #1, replicates, 20 µM", "value": "0.54 % of control and 0.58 % of control and 0.61 % of control"}, {"measurement": "TNT-luciferase % of control", "setting": "[1]; 20000 nM, Experiment #2, replicates, 20 µM", "value": "0.11 % of control and 0.0948 % of control and 0.12 % of control"}, {"measurement": "TNT-luciferase % of control, average", "setting": "[1]; 20000 nM", "value": "0.35 % of control"}, {"measurement": "TNT-luciferase % of control", "setting": "[1]; 60000 nM, Experiment #1, replicates, 60 µM", "value": "0.02 % of control (2×) and 0.0164 % of control"}, {"measurement": "TNT-luciferase % of control", "setting": "[1]; 60000 nM, Experiment #2, replicates, 60 µM", "value": "0.000642 % of control and -0.00528 % of control and -0.00499 % of control"}, {"measurement": "TNT-luciferase % of control, average", "setting": "[1]; 60000 nM", "value": "0.00775 % of control"}, {"measurement": "TNT-luciferase % of control", "setting": "[1]; 200000 nM, Experiment #1, replicates, 200 µM", "value": "0.00754 % of control and 0.000331 % of control and -0.000994 % of control"}, {"measurement": "TNT-luciferase % of control", "setting": "[1]; 200000 nM, Experiment #2, replicates, 200 µM", "value": "0.0019 % of control and 0.00487 % of control and -0.000321 % of control"}, {"measurement": "TNT-luciferase % of control, average", "setting": "[1]; 200000 nM", "value": "0.00222 % of control"}, {"measurement": "TNT-luciferase LogIC50 (best-fit value)", "setting": "[1]; log(inhibitor) vs. response, variable slope (four parameters), concentration in nM", "value": 3.407}, {"measurement": "IC50", "setting": "[1]; log(inhibitor) vs. response, variable slope (four parameters), unit from head concentration (nM), read-out: TNT-luciferase IC50 (best-fit value)", "value": 2550, "unit": "nM"}, {"measurement": "Puromycin, % of control, single replicate", "setting": "WI‐26 VA4 cells; 300 nM, 0.3 µM", "value": "100.32 % of control and 98.22 % of control and 104.21 % of control and 104.56 % of control and 103.89 % of control and 104.45 % of control and 100.10 % of control and 97.92 % of control"}, {"measurement": "Puromycin, % of control, single replicate", "setting": "WI‐26 VA4 cells; 1000 nM, 1 µM", "value": "97.71 % of control and 98.10 % of control and 102.31 % of control and 107.16 % of control and 101.57 % of control and 105.82 % of control and 108.83 % of control"}, {"measurement": "Puromycin, % of control, single replicate", "setting": "WI‐26 VA4 cells; 3000 nM, 3 µM", "value": "32.63 % of control"}, {"measurement": "Puromycin, % of control, single replicate", "setting": "WI‐26 VA4 cells; 5000 nM, 5 µM", "value": "22.79 % of control and 22.67 % of control and 25.49 % of control and 25.64 % of control and 24.99 % of control and 25.25 % of control and 25.95 % of control and 25.31 % of control"}, {"measurement": "Puromycin, % of control, single replicate", "setting": "WI‐26 VA4 cells; 10000 nM, 10 µM", "value": "12.21 % of control and 11.47 % of control and 15.58 % of control and 13.74 % of control and 13.61 % of control and 15.33 % of control and 15.25 % of control and 13.38 % of control"}, {"measurement": "Puromycin, % of control, single replicate", "setting": "WI‐26 VA4 cells; 100000 nM, 100 µM", "value": "0.86 % of control and 1.09 % of control and 0.96 % of control and 0.69 % of control and 0.0546 % of control and 1.21 % of control and 1.52 % of control and 1.41 % of control and 1.00 % of control"}, {"measurement": "activity at 0.1 µM", "setting": "WI‐26 VA4 cells; [2]", "value": 106, "unit": "%"}, {"measurement": "activity at 0.1 µM", "setting": "WI‐26 VA4 cells; [3]", "value": 113, "unit": "%"}, {"measurement": "activity at 0.3 µM", "setting": "WI‐26 VA4 cells; [2]", "value": 102, "unit": "%"}, {"measurement": "activity at 0.3 µM", "setting": "WI‐26 VA4 cells; [3]", "value": 102, "unit": "%"}, {"measurement": "activity at 1 µM", "setting": "WI‐26 VA4 cells; [2]", "value": 103, "unit": "%"}, {"measurement": "activity at 1 µM", "setting": "WI‐26 VA4 cells; [3]", "value": 101, "unit": "%"}, {"measurement": "activity at 3 µM", "setting": "WI‐26 VA4 cells; [2]", "value": 31.2, "unit": "%"}, {"measurement": "activity at 3 µM", "setting": "WI‐26 VA4 cells; [3]", "value": 29.7, "unit": "%"}, {"measurement": "activity at 5 µM", "setting": "WI‐26 VA4 cells; [2]", "value": 24.6, "unit": "%"}, {"measurement": "activity at 5 µM", "setting": "WI‐26 VA4 cells; [3]", "value": 23.1, "unit": "%"}, {"measurement": "activity at 10 µM", "setting": "WI‐26 VA4 cells; [2]", "value": 13.7, "unit": "%"}, {"measurement": "activity at 10 µM", "setting": "WI‐26 VA4 cells; [3]", "value": 12.4, "unit": "%"}, {"measurement": "activity at 30 µM", "setting": "WI‐26 VA4 cells; Homo sapiens, WI26VA4, 30000 nM, read-out: Puromycin, % of control, average", "value": 1.05, "unit": "%"}, {"measurement": "activity at 100 µM", "setting": "WI‐26 VA4 cells; Homo sapiens, WI26VA4, 100000 nM, read-out: Puromycin, % of control, average", "value": 0.98, "unit": "%"}, {"measurement": "IC50", "setting": "WI‐26 VA4 cells; Homo sapiens, WI26VA4, log(inhibitor) vs. response, variable slope (four parameters), read-out: Puromycin, IC50 (best-fit value)", "value": 2680, "unit": "nM"}, {"measurement": "Puromycin, HillSlope (best-fit value)", "setting": "WI‐26 VA4 cells; log(inhibitor) vs. response, variable slope (four parameters)", "value": -2.365}]}
